Patent US7355063B2, “Shogaol compound and tyrosinase activity inhibitor comprising the compound” (Toagosei Co., Ltd., priority 2003, dated 2008)
One block for each molecule: values may come before it.

What was measured:
mushroom tyrosinase [1] = assay: Tyrosinase activity inhibition test using L-dopa as substrate (Test Examples 3 to 6, microplate reader, 490 nm); assay type: biochemical
Experimental: (§1) Using the compound 37 obtained in Example 21, the compound 38 obtained in Example 22, the compound 39 obtained in Example 23, and arbutin (manufactured by Tokyo Kasei Kogyo Co., Ltd.) as a comparative control, a tyrosinase activity inhibition test was carried out using L-dopa as a substrate.
The specific test procedures are as follows. • (1) 72 μl of a phosphate buffer prepared by dissolving 1.000 g of sodium dihydrogen phosphate and 1.186 g of disodium hydrogen phosphate in 500 ml of distilled water, 80 μl of a substrate solution prepared by dissolving 32.7 mg of L-DOPA in 200 ml of distilled water, and 8 μl of a test solution prepared by dissolving the test compound in dimethyl sulfoxide were mixed together. • (2) 80 μl of an enzyme solution prepared by dissolving 3.0 mg (2400 units; manufactured by Sigma Corporation) of mushroom tyrosinase in 7.0 ml of distilled water and diluting the solution with the above phosphate buffer so as to make it five times in amount was added to the solution prepared in (1), and the whole was stirred for 15 seconds. The resulting solution was maintained at 25° C., and the absorbance at 490 nm was measured by a microplate reader one minute and 45 seconds later and 2 minutes and 45 seconds later. • (3) The test operations in the above (1) and (2) were conducted four times for the individual test compounds and blank test (only dimethyl sulfoxide), and the resulting numeric value was inserted in the following calculation formula and a mean value thereof was regarded as a tyrosinase activity inhibition ratio (%). Tyrosinase activity inhibition ratio (%)=[(T^1−T^2)/T^1]×100 • T^1=difference in absorbance of solution with addition of no test compound between 2 minutes and 45 seconds later and one minute and 45 seconds later • T^2=difference in absorbance of solution with addition of test compound was added between 2 minutes and 45 seconds later and one minute and 45 seconds later
(§2) Using the compound 42 obtained in Example 26, the compound 45 obtained in Example 29, the compound 46 obtained in Example 30, and arbutin (manufactured by Tokyo Kasei Kogyo Co., Ltd.) as a comparative control, a tyrosinase activity inhibition test was carried out using L-dopa as a substrate. The test procedure was in accordance with Test Example 3.
as §2, with “34” for “42”, “18,” for “26,”, “47” for “45”, “31,” for “29, the compound 46 obtained in Example 30,”
Using the compound 48 obtained in Example 32 and arbutin (manufactured by Tokyo Kasei Kogyo Co., Ltd.) as a comparative control, a tyrosinase activity inhibition test was carried out using L-dopa as a substrate. The test procedure was in accordance with Test Example 3.

[2] = Test of scavenging DPPH radical (Test Example 9, microplate reader, 540 nm); settings: final concentration of 25 μg/mL; 20 minutes, room temperature
Excerpt: Using the compound 36 obtained in Example 20, the compound 37 obtained in Example 21, the compound 38 obtained in Example 22, the compound 39 obtained in Example 23, the compound 40 obtained in Example 24, the compound 42 obtained in Example 26, the compound 45 obtained in Example 29, the compound 46 obtained in Example 30, the compound 48 obtained in Example 32 and, as a comparative control, dl-α-tocopherol (manufactured by Tokyo Kasei Kogyo Co., Ltd.), a test of scavenging DDPH (1,1-diphenyl-2-picrylhydrazyl) radical, a stable radical, was carried out.
100 μl of 800 μM DPPH ethanol solution was added to 80 μl of 100 mM Tris-HCl buffer (pH 7.4) and 20 μl of an ethanol solution of the compound 36 (final concentration of 25 μg/mL), followed by sufficient stirring. After the resulting mixture was allowed to stand in a dark place at room temperature for 20 minutes, the absorbance at 540 nm was measured on a microplate reader (absorbance of the test solution).
The compounds 37, 38, 39, 40, 42, 45, 46, and 48 of the invention as well as dl-α-tocopherol as a known radical scavenger were similarly tested.
As a control, using 80 μl of 100 mM Tris-HCl buffer (pH 7.4), 20 μl of ethanol, and 100 μl of 800 μM DPPH ethanol solution, the same operation was carried out as described above and the absorbance was measured (absorbance of the control solution).
With the individual compounds, the same measurement was repeated four times, and the mean value was inserted in the following formula to calculate a DPPH radical-scavenging ratio. DPPH radical-scavenging ratio (%)=[1−(absorbance of sample solution/absorbance of control solution)]×100

[3] = molecular target: T1, hyaluronic acid-degrading enzyme (derived from bovine testicles, Type IV-S) (Bos taurus, UniProt Q2YDK3); assay: Hyaluronic acid-degrading enzyme activity inhibition test; assay type: biochemical
T1 construct: derived from bovine testicles manufactured by Sigma Corporation, Type IV-S; purchased Sigma Corporation Type IV-S; host or cells: bovine testicles
T1 sequence (Q2YDK3 36-553): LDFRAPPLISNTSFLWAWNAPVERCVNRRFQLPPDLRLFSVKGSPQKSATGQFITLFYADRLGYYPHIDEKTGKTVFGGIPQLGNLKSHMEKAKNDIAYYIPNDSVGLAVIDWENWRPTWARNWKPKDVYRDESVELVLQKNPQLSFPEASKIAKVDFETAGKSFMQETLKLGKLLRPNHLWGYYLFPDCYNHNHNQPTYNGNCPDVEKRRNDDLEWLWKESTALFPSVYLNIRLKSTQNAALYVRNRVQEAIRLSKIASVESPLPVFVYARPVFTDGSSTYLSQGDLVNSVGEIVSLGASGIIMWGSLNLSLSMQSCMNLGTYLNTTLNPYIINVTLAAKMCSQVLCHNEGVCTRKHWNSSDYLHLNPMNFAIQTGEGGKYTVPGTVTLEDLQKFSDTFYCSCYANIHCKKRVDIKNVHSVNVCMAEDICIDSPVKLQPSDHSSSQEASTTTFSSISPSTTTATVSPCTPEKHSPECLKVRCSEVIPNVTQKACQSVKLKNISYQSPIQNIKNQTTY
Experimental: Using the compound 7 obtained in Example 2, the compound 34, and magnesium ascorbate phosphate as a comparative control, a hyaluronic acid-degrading enzyme activity inhibition test was carried out.
First, the following solutions shown in A to H were each prepared. • A: 0.1M acetate buffer solution was prepared by dissolving 0.60 g of acetic acid in 100 ml of distilled water. • B: A hyaluronidase solution was prepared by dissolving 7.2 mg of a hyaluronic acid-degrading enzyme (derived from bovine testicles manufactured by Sigma Corporation, Type IV-S) into 3.0 ml of the acetate buffer (prepared in the above A). • C: An activator solution was prepared by dissolving 1.0 mg of compound 48/80 (a hyaluronidase activator manufactured by Sigma Corporation) into 10.0 ml of the acetate buffer (prepared in the above A). • D: A hyaluronic acid solution was prepared by dissolving 12.0 mg of potassium hyaluronate (manufactured by Wako Pure Chemical Industries, Ltd.) into 15.0 ml of the acetate buffer (prepared in the above A). • E: A 0.4N sodium hydroxide aqueous solution was prepared by dissolving 1.60 g of sodium hydroxide into 100 ml of distilled water. • F: After 4.95 g of boric acid was dissolved into 50 ml of distilled water, a 1N sodium hydroxide aqueous solution was added until pH reached 9.1. Subsequently, the whole amount was made 100 ml by adding distilled water. • G: 1.0 g of p-dimethylaminobenzaldehyde, 1.25 ml of 10N hydrochloric acid, and 8.75 ml of acetic acid were mixed. The solution was used after the whole amount was made 100 ml by adding acetic acid immediately before use. • H: Each test compound was dissolved in the acetate buffer (prepared in the above A) so the final test concentration became 0.5 mg/ml and 1.0 mg/ml.
Next, the experimental operation was carried out with the procedures shown in the following (1) to (8).
(1) 0.2 ml of the test compound solution (prepared in the above H) and 0.1 ml of the hyaluronic acid-degrading enzyme solution (prepared in the B) were mixed and the whole was incubated at 37° C. for 20 minutes.
(2) To the above reaction solution was added 0.2 ml of the activator solution (prepared in the above C) and the whole was incubated at 37° C. for 20 minutes.
(3) To the above reaction solution was added 0.5 ml of the hyaluronic acid solution (prepared in the above D), and the whole was incubated at 37° C. for 40 minutes.
(4) To the above reaction solution was added 0.2 ml of the 0.4N sodium hydroxide aqueous solution (prepared in the above E), and the whole was cooled in an ice bath.
(5) To the above reaction solution was added 0.2 ml of the boric acid solution (prepared in the above F), and the whole was heated at 100° C. for 3 minutes.
(6) The above reaction solution was cooled in an ice bath.
(7) To the above reaction solution was added 3.0 ml of the p-dimethylaminobenzaldehyde solution (prepared in the above G), and the whole was incubated at 37° C. for 20 minutes.
(8) Absorbance of the reaction solution at 585 nm was measured using a spectrophotometer.
The above experimental operations were repeated three times, and the resulting numeric value was inserted in the following calculation formula and a mean value thereof was regarded as a hyaluronic acid-degrading enzyme activity inhibition ratio (%). Hyaluronic acid-degrading enzyme activity inhibition ratio (%)=(A−B)/A×100
A=absorbance obtained at the time when operation was carried out with addition of no test compound
B=absorbance obtained at the time when operation was carried out with addition of test compound
The compounds of the invention and magnesium ascorbate phosphate were each used in an enzymatic reaction solution in amounts of 0.1 mg/ml, 0.2 mg/ml, and 0.4 mg/ml, and the results were shown in Table 7 (since the compound 7 was not dissolved in a concentration of 0.4 mg/ml, the test was not carried out).

mushroom tyrosinase [4] = assay: Tyrosinase activity inhibition test using L-dopa as substrate (Test Examples 1 and 2, absorbance at 475 nm); assay type: biochemical
Experimental: as §1, with “7” for “37”, “2,” for “21,”, “13” for “38”, “5, a mixture of” for “22,”, “18 and the compound 19 (existing molar ratio 45:55)” for “39”, “7,” for “23,”
The specific test procedures are as follows. • (1) 1.80 ml of a phosphate buffer prepared by dissolving 1.000 g of sodium dihydrogen phosphate and 1.186 g of disodium hydrogen phosphate in 500 ml of distilled water, 1.00 ml of a substrate solution prepared by dissolving 32.7 mg of L-DOPA in 200 ml of distilled water, and 0.10 ml of a test solution prepared by dissolving the test compound in dimethyl sulfoxide were mixed together. • (2) 0.10 ml of an enzyme solution prepared by dissolving 3.0 mg (2400 units; manufactured by Sigma Corporation) of mushroom tyrosinase in 7.0 ml of distilled water was added to the solution prepared in (1), and the whole was stirred for 15 seconds. The resulting solution was maintained at 25° C., and the absorbance at 475 nm was measured one minute and 45 seconds later and 2 minutes and 45 seconds later. • (3) The test operations in the above (1) and (2) were conducted three times for the individual test compounds and blank test (only dimethyl sulfoxide), and the resulting numeric value was inserted in the following calculation formula and a mean value thereof was regarded as a tyrosinase activity inhibition ratio (%). Tyrosinase activity inhibition ratio (%)=[(T^1−T^2)/T^1]×100 • T^1=difference in absorbance of solution with addition of no test compound between 2 minutes and 45 seconds later and one minute and 45 seconds later • T^2=difference in absorbance of solution with addition of test compound was added between 2 minutes and 45 seconds later and one minute and 45 seconds later
Using the compound 40 obtained in Example 24 and arbutin (manufactured by Tokyo Kasei Kogyo Co., Ltd.) as a comparative control, a tyrosinase activity inhibition test was carried out using L-dopa as a substrate. The test procedure was in accordance with Test Example 1.

[5] = 0.25 mg/mL, Table 6, 0.50 mg/mL

Molecule: COC(=O)CCCCCCC(CC(=O)CCc1ccc(O)c(OC)c1)OC (stereo not shown) [Compound 36]
DPPH radical-scavenging ratio (%) [2]: 31.7%

Molecule: magnesium ascorbate phosphate [reference compound]
Hyaluronic acid-degrading enzyme activity inhibition ratio (%) ([3]; 0.1 mg/mL): 3.3%
Hyaluronic acid-degrading enzyme activity inhibition ratio (%) ([3]; 0.2 mg/mL): 4.2%
Hyaluronic acid-degrading enzyme activity inhibition ratio (%) ([3]; 0.4 mg/mL): 7.6%

Molecule: OC[C@H]1O[C@@H](Oc2ccc(O)cc2)[C@H](O)[C@@H](O)[C@@H]1O [Arbutin, arbutin, reference compound]
Tyrosinase activity inhibition ratio (%) (mushroom tyrosinase [4]; 0.125 mg/mL, Table 2): 23.1%
Tyrosinase activity inhibition ratio (%) (mushroom tyrosinase [4]; 0.25 mg/mL, Table 2): 28.5%
Tyrosinase activity inhibition ratio (%) (mushroom tyrosinase [4]; 0.5 mg/mL in enzymatic reaction solution, Table 1): 36.2%
Tyrosinase activity inhibition ratio (%) (mushroom tyrosinase [4]; 0.5 mg/mL, Table 2): 34.6%
Tyrosinase activity inhibition ratio (%) (mushroom tyrosinase [4]; 1 mg/mL in enzymatic reaction solution, Table 1): 42.2%
Tyrosinase activity inhibition ratio (%) (mushroom tyrosinase [1]; 0.031 mg/mL, Table 4): 10.7%
Tyrosinase activity inhibition ratio (%) (mushroom tyrosinase [1]; 0.063 mg/mL, Table 4): 17.7%
Tyrosinase activity inhibition ratio (%) (mushroom tyrosinase [1]; 0.125 mg/mL, Table 4): 24.7%
Tyrosinase activity inhibition ratio (%) (mushroom tyrosinase [1]; [5]): 35.8%
Tyrosinase activity inhibition ratio (%) (mushroom tyrosinase [1]; 0.5 mg/mL, Table 3): 35.0%
Tyrosinase activity inhibition ratio (%) (mushroom tyrosinase [1]; 0.5 mg/mL, Table 6, 0.50 mg/mL): 42.6%
Tyrosinase activity inhibition ratio (%) (mushroom tyrosinase [1]; 1 mg/mL, Table 3): 41.6%
Tyrosinase activity inhibition ratio (%) (mushroom tyrosinase [1]; 1.00 mg/ml, Table 5): 45.6%

Continued, in another order:

Tyrosinase activity inhibition ratio (%) (mushroom tyrosinase [1]; 0.5 mg/mL, Table 3): 48.6%
Tyrosinase activity inhibition ratio (%) (mushroom tyrosinase [1]; 1 mg/mL, Table 3): 67.7%
Molecule: COc1cc(CCC(O)/C=C/CCCCCCC(=O)O)ccc1O (stereo not shown) [Compound 37]
DPPH radical-scavenging ratio (%) [2]: 37.6%

Tyrosinase activity inhibition ratio (%) (mushroom tyrosinase [1]; [5]): 38.2%
Tyrosinase activity inhibition ratio (%) (mushroom tyrosinase [1]; 0.5 mg/mL, Table 6, 0.50 mg/mL): 47.1%
Molecule: COc1cc(CCC(O)CC(CCCCCCO)OC)ccc1O (stereo not shown) [Compound 48]
DPPH radical-scavenging ratio (%) [2]: 33.5%

Tyrosinase activity inhibition ratio (%) (mushroom tyrosinase [1]; 1.00 mg/ml, Table 5): 60.1%
Hyaluronic acid-degrading enzyme activity inhibition ratio (%) ([3]; 0.1 mg/mL): 12.1%
Hyaluronic acid-degrading enzyme activity inhibition ratio (%) ([3]; 0.2 mg/mL): 31.6%
Hyaluronic acid-degrading enzyme activity inhibition ratio (%) ([3]; 0.4 mg/mL): 81.3%
Molecule: COc1cc(CCC(=O)CC(O)CCCCCCC(=O)O)ccc1O (stereo not shown) [Compound 34]

Tyrosinase activity inhibition ratio (%) (mushroom tyrosinase [1]; 0.031 mg/mL, Table 4): 14.9%
Tyrosinase activity inhibition ratio (%) (mushroom tyrosinase [1]; 0.063 mg/mL, Table 4): 23.8%
Tyrosinase activity inhibition ratio (%) (mushroom tyrosinase [1]; 0.125 mg/mL, Table 4): 36.9%
Molecule: COc1cc(CCC(=O)CCCCCCCCCO)ccc1O [Compound 46]
DPPH radical-scavenging ratio (%) [2]: 39.4%
